Experimental data taken from paper PMC6253949, “The Inhibitory Action of Kohamaic Acid A Derivatives on Mammalian DNA Polymerase β” (Molecules, 2008).

Experiments:
HL-60 cells = assay: HL-60 cancer cell growth, MTT assay; type: cell-based, human; settings: 50 μM, 24 hr
Protocol: To investigate the effects of KA-A derivatives in cultured cells, we used a human cancer cell line, HL-60, human promyelocytic leukemia cells (IFO 050022), supplied by the Health Science Research Resources Bank (Osaka, Japan). The cells were routinely cultured in RPMI 1640 medium supplemented with 10% fetal bovine serum, 100 μg/mL streptomycin, 100 unit/mL penicillin, and 1.6 mg/mL NaHCO3. The cells were cultured at 37 °C in standard medium in a humidified atmosphere of 5% CO2-95% air. The rate of the cancer cell growth of the compound was investigated as follows: high concentrations (10 mM) of the compounds were dissolved in DMSO and stocked. Approximately 1 x 10^4 cells per well were inoculated in 96-well micro plates, and then the compound stock solution was diluted to various concentrations, and applied to each well. After incubation for 24 hr, the survival rate was determined by MTT (3-(4,5-dimethylthiazol-2-yl)-2,5-diphenyl tetrazolium bromide) assay.

Taq DNA polymerase = molecular target: T1, Taq DNA polymerase (Thermus aquaticus, UniProt P19821); assay: DNA polymerase assay, Taq pol; type: biochemical; settings: incubated at 74 °C
T1 construct: purchased Takara (Kyoto, Japan)
T1 sequence (P19821 whole entry): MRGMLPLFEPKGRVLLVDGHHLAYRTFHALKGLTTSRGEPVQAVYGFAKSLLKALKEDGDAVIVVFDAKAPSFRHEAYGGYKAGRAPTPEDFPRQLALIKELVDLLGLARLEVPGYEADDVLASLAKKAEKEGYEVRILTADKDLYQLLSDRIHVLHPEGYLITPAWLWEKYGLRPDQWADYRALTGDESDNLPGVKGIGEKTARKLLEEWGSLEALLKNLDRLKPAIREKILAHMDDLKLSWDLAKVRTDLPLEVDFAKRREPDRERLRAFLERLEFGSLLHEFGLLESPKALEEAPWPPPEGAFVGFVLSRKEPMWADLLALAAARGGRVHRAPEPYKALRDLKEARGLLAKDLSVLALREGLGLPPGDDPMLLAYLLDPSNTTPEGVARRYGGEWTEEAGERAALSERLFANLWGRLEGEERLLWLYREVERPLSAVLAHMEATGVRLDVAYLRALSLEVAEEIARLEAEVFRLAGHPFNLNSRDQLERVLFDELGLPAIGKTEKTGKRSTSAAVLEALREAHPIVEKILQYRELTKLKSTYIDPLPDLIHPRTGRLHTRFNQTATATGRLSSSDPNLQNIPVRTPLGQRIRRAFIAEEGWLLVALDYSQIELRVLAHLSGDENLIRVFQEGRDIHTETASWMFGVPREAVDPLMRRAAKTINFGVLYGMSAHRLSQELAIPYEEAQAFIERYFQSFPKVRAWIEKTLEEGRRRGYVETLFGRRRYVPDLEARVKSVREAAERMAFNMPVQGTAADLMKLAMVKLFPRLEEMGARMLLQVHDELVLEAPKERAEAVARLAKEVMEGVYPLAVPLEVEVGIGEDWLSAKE
Excerpt: Pol α was purified from calf thymus by immuno-affinity column chromatography as described by Tamai et al.. Recombinant rat pol β was purified from E. coli JMpβ5 as described by Date et al.. The human pol γ catalytic gene was cloned into pFastBac. Histidine-tagged enzyme was expressed using the BAC-TO-BAC HT Baculovirus Expression System according to the supplier's manual (LIFE TECHNOLOGIES, MD, USA) and purified using ProBoundresin (Invitrogen Japan, Tokyo, Japan). Human pols δ and ε were purified by the nuclear fractionation of human peripheral blood cancer cells (Molt-4) using the second subunit of pols δ and ε-conjugated affinity column chromatography, respectively. Recombinant human pols η and ι tagged with His6 at their C-terminal were expressed in SF9 insect cells using the baculovirus expression system, and were purified as described previously. A truncated form of pol κ (i.e., hDINB1DC) with 6 x His-tags attached at the C-terminal was overproduced using the BAC-to-BAC Baculovirus Expression System kit (GIBCO BRL, MD, USA) and purified as described previously. […]
For pols, poly(dA)/oligo(dT)12-18 (A/T = 2/1) and dTTP were used as the DNA template-primer and nucleotide (i.e., dNTP) substrate, respectively. […] Activity without the inhibitor was considered 100%, and the remaining activity at each concentration of the inhibitor was determined relative to this value. […]

[1] = molecular target: Calf Primase of DNA polymerase α (Bos taurus, UniProt A0A3Q1MF00+A0JNF4); assay: Primase activity assay of calf pol α; type: biochemical
Calf Primase of DNA polymerase α, sequence (A0AAA9THK8 entry or part of it): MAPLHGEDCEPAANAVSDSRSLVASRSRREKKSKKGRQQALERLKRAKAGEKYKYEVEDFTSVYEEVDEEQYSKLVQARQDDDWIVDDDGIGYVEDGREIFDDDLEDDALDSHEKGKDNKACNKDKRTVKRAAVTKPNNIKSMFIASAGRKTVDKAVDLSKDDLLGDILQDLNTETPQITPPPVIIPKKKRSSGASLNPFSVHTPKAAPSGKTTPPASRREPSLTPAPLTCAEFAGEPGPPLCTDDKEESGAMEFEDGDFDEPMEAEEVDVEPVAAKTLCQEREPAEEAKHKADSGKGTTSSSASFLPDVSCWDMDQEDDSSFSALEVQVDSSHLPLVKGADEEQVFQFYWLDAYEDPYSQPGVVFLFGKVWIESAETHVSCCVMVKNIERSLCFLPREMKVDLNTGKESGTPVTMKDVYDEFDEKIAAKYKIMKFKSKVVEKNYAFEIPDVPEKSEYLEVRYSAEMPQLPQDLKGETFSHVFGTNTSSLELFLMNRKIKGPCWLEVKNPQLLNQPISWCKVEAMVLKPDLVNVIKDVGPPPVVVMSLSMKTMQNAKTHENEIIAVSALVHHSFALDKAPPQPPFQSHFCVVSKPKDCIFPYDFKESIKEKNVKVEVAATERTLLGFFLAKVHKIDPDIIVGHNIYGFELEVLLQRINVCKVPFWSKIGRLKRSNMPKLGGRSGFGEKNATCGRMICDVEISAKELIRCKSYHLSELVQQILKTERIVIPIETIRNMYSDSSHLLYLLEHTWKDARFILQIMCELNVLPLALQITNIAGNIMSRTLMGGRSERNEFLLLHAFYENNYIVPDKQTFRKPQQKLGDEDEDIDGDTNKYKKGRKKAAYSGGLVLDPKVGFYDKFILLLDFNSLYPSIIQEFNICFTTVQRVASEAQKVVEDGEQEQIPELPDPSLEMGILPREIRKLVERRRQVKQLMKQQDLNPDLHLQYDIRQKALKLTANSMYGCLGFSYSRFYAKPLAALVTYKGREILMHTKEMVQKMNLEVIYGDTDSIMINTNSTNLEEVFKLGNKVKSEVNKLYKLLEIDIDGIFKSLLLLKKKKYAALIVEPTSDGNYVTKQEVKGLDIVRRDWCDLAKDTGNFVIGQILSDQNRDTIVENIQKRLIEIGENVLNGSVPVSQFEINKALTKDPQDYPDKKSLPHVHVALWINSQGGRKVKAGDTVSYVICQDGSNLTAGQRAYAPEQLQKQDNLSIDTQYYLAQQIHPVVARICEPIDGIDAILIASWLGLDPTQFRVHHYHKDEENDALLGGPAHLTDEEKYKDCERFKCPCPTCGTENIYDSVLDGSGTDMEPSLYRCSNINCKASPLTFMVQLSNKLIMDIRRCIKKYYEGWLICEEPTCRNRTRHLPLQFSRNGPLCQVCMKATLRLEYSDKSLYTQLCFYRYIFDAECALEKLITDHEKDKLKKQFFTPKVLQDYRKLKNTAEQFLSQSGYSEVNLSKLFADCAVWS
Calf Primase of DNA polymerase α, sequence (A0JNF4 entry or part of it): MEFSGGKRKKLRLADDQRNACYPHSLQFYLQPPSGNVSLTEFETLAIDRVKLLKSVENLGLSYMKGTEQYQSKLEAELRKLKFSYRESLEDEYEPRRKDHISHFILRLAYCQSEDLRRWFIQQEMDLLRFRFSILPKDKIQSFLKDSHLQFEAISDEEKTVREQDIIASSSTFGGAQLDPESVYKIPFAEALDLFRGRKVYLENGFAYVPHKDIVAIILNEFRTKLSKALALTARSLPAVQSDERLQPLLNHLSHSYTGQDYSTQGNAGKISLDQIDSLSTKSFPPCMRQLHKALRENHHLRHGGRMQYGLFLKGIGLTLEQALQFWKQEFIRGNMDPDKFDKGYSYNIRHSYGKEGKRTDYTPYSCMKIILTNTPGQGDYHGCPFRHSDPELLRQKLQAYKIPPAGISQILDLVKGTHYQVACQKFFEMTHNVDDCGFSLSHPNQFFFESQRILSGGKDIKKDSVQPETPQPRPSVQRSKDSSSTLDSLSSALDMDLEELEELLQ
Calf Primase of DNA polymerase α, sequence (Q58D13 whole entry, further chain): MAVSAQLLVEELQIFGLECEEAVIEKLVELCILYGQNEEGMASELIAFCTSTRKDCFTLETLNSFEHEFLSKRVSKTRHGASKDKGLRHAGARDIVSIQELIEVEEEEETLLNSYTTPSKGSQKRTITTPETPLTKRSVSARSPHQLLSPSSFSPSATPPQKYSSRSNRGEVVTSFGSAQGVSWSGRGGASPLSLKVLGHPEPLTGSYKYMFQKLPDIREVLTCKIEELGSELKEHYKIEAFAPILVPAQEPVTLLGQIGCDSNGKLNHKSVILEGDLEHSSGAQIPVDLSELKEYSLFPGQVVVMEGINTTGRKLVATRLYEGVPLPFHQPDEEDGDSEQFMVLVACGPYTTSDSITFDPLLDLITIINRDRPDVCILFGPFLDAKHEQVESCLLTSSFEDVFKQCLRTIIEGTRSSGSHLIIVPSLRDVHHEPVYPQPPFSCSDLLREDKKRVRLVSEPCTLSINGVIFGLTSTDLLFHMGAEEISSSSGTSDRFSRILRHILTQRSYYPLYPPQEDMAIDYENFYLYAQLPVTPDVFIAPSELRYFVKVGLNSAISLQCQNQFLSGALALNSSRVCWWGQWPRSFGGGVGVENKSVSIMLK
Calf Primase of DNA polymerase α, sequence (A0A3Q1MF00 entry or part of it): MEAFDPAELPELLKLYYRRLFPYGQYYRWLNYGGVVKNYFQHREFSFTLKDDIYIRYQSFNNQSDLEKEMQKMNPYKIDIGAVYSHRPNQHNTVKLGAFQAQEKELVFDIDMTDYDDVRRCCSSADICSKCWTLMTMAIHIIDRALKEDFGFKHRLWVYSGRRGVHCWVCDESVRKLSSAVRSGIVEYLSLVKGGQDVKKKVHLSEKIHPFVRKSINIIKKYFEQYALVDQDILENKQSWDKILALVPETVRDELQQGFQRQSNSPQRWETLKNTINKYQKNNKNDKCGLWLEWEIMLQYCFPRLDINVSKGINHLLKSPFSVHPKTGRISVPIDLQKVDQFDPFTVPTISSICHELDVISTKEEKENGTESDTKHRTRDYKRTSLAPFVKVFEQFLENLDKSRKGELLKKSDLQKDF
Protocol: The primase activity of calf pol α, the activities of T7 RNA polymerase, T4 polynucleotide kinase and bovine DNase I were measured in standard assays according to the manufacturer's specifications as described by Tamiya-Koizumi et al., Nakayama et al., Soltis et al., and Lu and Sakaguchi, respectively.

SMILES: CC1=CC[C@H]2C(C)(C)CCC[C@]2(C)[C@H]1CCCCCCCCCCCCCCCCC(=O)O (relative stereo) [compound 11, (1S*,4aS*,8aS*)-17-(1,4,4a,5,6,7,8,8a-octahydro-2,5,5,8a-tetramethylnaphthalen-1-yl)heptadecanoic acid]
- Growth inhibitory effect on HL-60 cells, rank among compounds tested (HL-60 cells): strongest growth inhibitory effect
- IC50 (Taq DNA polymerase): > 200 µM
- IC50 [1]: > 200 µM
